The results in this text go back to patent publication US11535632B2, “Solid forms of an S1P-receptor modulator” (ESCAPE Bio, Inc., priority 2019, dated 2022).

The data set can be described thus: Competitive slurries of Form B and C in process relevant solvents. It counts as physicochemical. As to the method: Determination of the relative stabilities of Form B and Form C was undertaken to identify which material was more thermodynamically stable in process relevant solvents. As a suspected solvate was isolated from experiments where DMAC was used as a solvent, only DMSO and acetic acid were determined to be appropriate process solvents. Combinations of these solvents with relevant antisolvents were therefore selected for the competitive slurry experiments.
Compound 1 (from Example 2) was dispensed into HPLC vials. To these, 1 ml of selected solvents was subsequently added to give a suspension. Materials were slurried for 72 hours at 90° C., 50° C. or 25° C. with 500 rpm stirring. Material was subsequently isolated by centrifugation and analyzed by XRPD.

For `O=C(O)[C@H]1C[C@@H](N2CCc3oc(-c4ccc(OCc5ccc(Cl)cc5)cc4)nc3C2)C1` [Form B, (1s,3s)-3-(2-(4-((4-chlorobenzyl)oxy)phenyl)-6,7-dihydrooxazolo[4,5-c]pyridin-5(4H)-yl)cyclobutane-1-carboxylic acid], the Relative thermodynamic stability entry is “more thermodynamically stable than Form C” (acetic acid mixtures and temperatures investigated); “more thermodynamically stable than Form C” (majority of experimental conditions assessed).
